Blank lines part the entries; values can stand above or below the molecule they belong to.
Experiment: solvent given as SMILES

Structure (SMILES): CC1=C(c2cccs2)C(C)=[N+]2C1=C(c1ccccc1)c1c(C)c(-c3cccs3)c(C)n1[B-]2(F)F
emission maximum (in CO): 610 nm
emission maximum (in Cc1ccccc1): 609 nm
emission maximum (in ClCCl): 609 nm

Structure (SMILES): N#Cc1ccc(-c2ccc(C3=CCCCC3)s2)s1
emission maximum (in C1CCOC1): 441 nm
emission maximum (in CC#N): 448 nm
emission maximum (in CCCCCC): 427 nm
emission maximum (in CCO): 436 nm
emission maximum (in OCCOCCO): 449 nm
emission maximum (in c1ccncc1): 448 nm

Structure (SMILES): N#Cc1ccc(-c2cc(-c3ccc(N4CCCC4)cc3)nc(-c3ccccc3)n2)cc1
emission maximum (in ClC(Cl)Cl): 518 nm

Structure (SMILES): C1=Cc2ccccc2C(=Cc2ccc(-c3ccc(C=C4c5ccccc5-c5ccccc54)cc3)cc2)c2ccccc21
emission maximum (in C1CCOC1): 450 nm

Structure (SMILES): CCCCN(CCCC)c1ccc2c#cc3cc4c#cc5ccc(N(CCCC)CCCC)cc5c#cc#cc5cc(C(F)(F)F)ccc5c#cc4cc3c#cc3ccc(C(F)(F)F)cc3c#cc#cc2c1
emission maximum (in ClCCl): 544 nm
emission maximum (in c1ccccc1): 501 nm

Structure (SMILES): COc1ccc(/C=C/c2ccccc2)cc1
emission maximum (in C1CCCCC1): 364 nm
emission maximum (in CC#N): 374 nm
emission maximum (in CC(C)O): 365 nm
emission maximum (in CCCCOCCCC): 367 nm
emission maximum (in CCOC(C)=O): 366 nm
emission maximum (in CCOCC): 366 nm

Structure (SMILES): C=CCOc1nnc(OCCC(F)(F)C(F)(F)C(F)(F)C(F)(F)C(F)(F)C(F)(F)C(F)(F)C(F)(F)F)nn1
emission maximum (in ClCCl): 572 nm
emission maximum (in OCC(F)(F)F): 560 nm

Structure (SMILES): O=C1c2ccccc2C2=Cc3ccc4ccccc4[n+]3[B-](F)(F)N12
emission maximum (in CCO): 465 nm
emission maximum (in Cc1ccccc1): 474 nm
emission maximum (in ClCCl): 464 nm

Structure (SMILES): CCCCC(CC)CN1C(=O)c2cccc3c(C#Cc4ccc(N(c5ccccc5)c5ccccc5)cc4)ccc(c23)C1=O (stereo unspecified)
emission maximum (in C1CCCCC1): 462 nm
emission maximum (in C1CCOC1): 621 nm
emission maximum (in CC#N): 547 nm
emission maximum (in Cc1ccccc1): 512 nm
emission maximum (in ClC(Cl)Cl): 582 nm

Structure (SMILES): CCOC(=O)c1sc2nc3c(c(C#N)c2c1N)CCCC3
emission maximum (in c1ccccc1): 545 nm

Structure (SMILES): Cc1ccc(-n2c(-c3cccc4cc[nH]c34)nc3c4ccccc4c4ccccc4c32)cc1
emission maximum (in Cc1ccccc1): 377 nm

Structure (SMILES): CC(C)(C)c1ccc(-c2nc3c4ccccc4c4ccccc4c3n2-c2ccc(-c3ccc(N(c4ccccc4)c4ccccc4)cc3)cc2)cc1
emission maximum (in ClCCl): 426 nm

Structure (SMILES): COc1ccc(C2=C(c3ccc(OC)cc3)C(c3ccccc3)=[N+]3C2=Nc2c(-c4ccc(OC)cc4)c(-c4ccc(OC)cc4)c(-c4ccccc4)n2[B-]3(F)F)cc1
emission maximum (in Cc1ccccc1): 750 nm

Structure (SMILES): CCCCCCc1cc2c3cscc3c3cc(CCCCCC)sc3c2s1
emission maximum (in ClC(Cl)Cl): 442 nm

Structure (SMILES): c1cc2ccc3ccc4cc3c2cc1CCCCCCc1ccc2ccc3ccc-4cc3c2c1
emission maximum (in Cc1ccccc1): 376 nm

Structure (SMILES): COc1ccc(/C=C/C2=CC(/C=C/c3ccc(OC)cc3)=[O+][B-](OC(C)=O)(OC(C)=O)O2)cc1
emission maximum (in C1CCOC1): 518 nm
emission maximum (in CC#N): 541 nm
emission maximum (in CC(C)=O): 531 nm
emission maximum (in CS(C)=O): 548 nm
emission maximum (in Cc1ccccc1): 510 nm
emission maximum (in ClC(Cl)Cl): 529 nm
emission maximum (in ClCCl): 535 nm

Structure (SMILES): CC(C)(C)c1ccc2c(c1)sc1[n+]2[B-](F)(F)n2c(c3cccc4c(Br)ccc2c43)=N1
emission maximum (in C1CCOC1): 520 nm
emission maximum (in CC#N): 519 nm
emission maximum (in CCCCCC): 516 nm
emission maximum (in Cc1ccccc1): 524 nm
emission maximum (in ClCCl): 552 nm

Structure (SMILES): c1cc2cc(c1)c1ccc3ccc4ccc(cc4c3c1)c1ccc3ccc4ccc(cc4c3c1)c1cccc2c1
emission maximum (in Cc1ccccc1): 414 nm

Structure (SMILES): O=c1cc(-c2ccccc2)oc(-c2ccc(-c3nc4ccccn4c3NC3CCCCC3)cc2)c1
emission maximum (in ClCCl): 508 nm

Structure (SMILES): CC(C)(C)c1cc(-c2ccc3c(-c4cc(C(C)(C)C)cc(C(C)(C)C)c4)cc4c5cc(-c6cc(C(C)(C)C)cc(C(C)(C)C)c6)ccc5c(-c5cc(C(C)(C)C)cc(C(C)(C)C)c5)cc4c3c2)cc(C(C)(C)C)c1
emission maximum (in ClCCl): 401 nm

Structure (SMILES): CC(C)(C)c1cc2ccc3c(-c4ccc(N(c5ccccc5)c5ccccc5)cc4)ccc4c5nc6cc(C#N)c(C#N)cc6nc5c(c1)c2c34
emission maximum (in C1CCOC1): 839.18 nm
emission maximum (in CCCCCC): 575.31 nm
emission maximum (in Cc1ccccc1): 613 nm
emission maximum (in ClC(Cl)Cl): 784.69 nm
emission maximum (in ClCCl): 839.18 nm

Structure (SMILES): Cc1ccc([C@@H]2C[C@](O)(c3ccccn3)C[C@](O)(c3ccccn3)[C@H]2C(=O)c2ccc(N(c3ccccc3)c3ccccc3)cc2)cc1
emission maximum (in C1CCOC1): 495 nm
emission maximum (in CC#N): 525 nm
emission maximum (in CCO): 511 nm
emission maximum (in CCOC(C)=O): 496 nm
emission maximum (in CN(C)C=O): 523 nm
emission maximum (in ClCCl): 516 nm
emission maximum (in c1ccccc1): 466 nm

Structure (SMILES): Cc1cc(-c2nc3c4ccccc4c4ccccc4c3n2-c2ccc(C(C)(C)C)cc2)ccc1-c1ccc(-c2c(-c3ccccc3)nc3ccccn23)cc1
emission maximum (in ClCCl): 416 nm

Structure (SMILES): CCCCCCCCn1cc(-n2c(-c3cc(-c4nc5ccc(C)cc5n4-c4cn(CCCCCCCC)nn4)cc(-c4nc5ccc(C)cc5n4-c4cn(CCCCCCCC)nn4)c3)nc3ccc(C)cc32)nn1
emission maximum (in C1CCOC1): 382.5 nm

Structure (SMILES): C(#Cc1cccc2nsnc12)c1ccc(-n2c3ccccc3c3ccccc32)cc1
emission maximum (in ClCCl): 538 nm

Structure (SMILES): c1ccc(/C(=C(\c2ccccc2)c2cc(-c3ccc(-c4ccccc4)cc3)ccc2-c2ccc(-c3ccccc3)cc2)c2cc(-c3ccc(-c4ccccc4)cc3)ccc2-c2ccc(-c3ccccc3)cc2)cc1
emission maximum (in C1CCOC1): 496 nm

Structure (SMILES): FC(F)(F)c1cc2n(n1)[B-]1(c3ccccc3-c3ccccc31)[n+]1ccc3ccccc3c1-2
emission maximum (in C1CCCCC1): 490 nm
emission maximum (in Cc1ccccc1): 538 nm
emission maximum (in ClCCl): 564 nm

Structure (SMILES): CC(=O)c1ccc2ccc3c(NCCC(=O)NCCCCCCc4nc5c(=O)[nH]c(N)nc5n4[C@H]4C[C@H](O)[C@@H](CO)O4)ccc4ccc1c2c43
emission maximum (in C1CCOC1): 523 nm
emission maximum (in CC#N): 546 nm
emission maximum (in CC(C)O): 557 nm
emission maximum (in CCO): 559 nm
emission maximum (in CN(C)C=O): 543 nm
emission maximum (in CO): 565 nm
emission maximum (in CS(C)=O): 551 nm
emission maximum (in O): 573 nm
emission maximum (in OCC(O)CO): 567 nm

Structure (SMILES): c1ccc2c(c1)c1ccccc1c1[nH]c(-c3ccc(-c4nc5c6ccccc6c6ccccc6c5[nH]4)cc3)nc21
emission maximum (in C1CCOC1): 456 nm
emission maximum (in CC#N): 462 nm
emission maximum (in CCO): 461 nm
emission maximum (in CS(C)=O): 430 nm
emission maximum (in ClCCl): 465 nm

Structure (SMILES): CC(C)(C)c1ccc2c(c1)c1cc(C(C)(C)C)ccc1n2-c1ccc(-c2nc3cc(C#N)c(C#N)cc3nc2-c2ccc(-n3c4ccc(C(C)(C)C)cc4c4cc(C(C)(C)C)ccc43)cc2)cc1
emission maximum (in Cc1ccccc1): 544 nm

Further lines, results first:

emission maximum (in C1CCOC1): 373 nm
emission maximum (in CC#N): 363 nm
emission maximum (in CS(C)=O): 385 nm
emission maximum (in ClC(Cl)Cl): 377 nm
Structure (SMILES): COc1cccc2cc(-c3ccc([N+](=O)[O-])cc3)c(=O)oc12

emission maximum (in C1CCOC1): 390 nm
Structure (SMILES): N#Cc1ccc(C=C(c2ccccc2)c2ccccc2)cc1

emission maximum (in CC#N): 593 nm
emission maximum (in CCCCCCC): 403 nm
emission maximum (in CO): 417 nm
emission maximum (in O): 540 nm
Structure (SMILES): O=[N+]([O-])c1ccc(/C=C/c2cn(S(=O)(=O)c3ccccc3)c3ccccc23)cc1

emission maximum (in C1CCOC1): 412 nm
emission maximum (in CO): 426 nm
Structure (SMILES): CCOC(=O)C1=CN(c2ccccc2)C=C(C(=O)OCC)C1c1ccccc1

emission maximum (in ClCCl): 446 nm
Structure (SMILES): CC(=O)c1c(N[C@@H](CC(C)C)C(=O)O)c2ccc(N(C)C)cc2oc1=O

emission maximum (in ClCCl): 534 nm
Structure (SMILES): [O-][n+]1c(/C=C/c2cccs2)nc(N2CCOCC2)c2c1CCCC2

emission maximum (in CO): 449 nm
Structure (SMILES): COc1ccc(OC)c(C(C)=O)c1

emission maximum (in O): 420 nm
Structure (SMILES): Fc1cc(F)c2cc3cccc[n+]3cc2c1

emission maximum (in C1CCOC1): 514 nm
emission maximum (in ClC(Cl)Cl): 577 nm
emission maximum (in ClCCl): 593 nm
Structure (SMILES): COc1cc2cc(OC)c(C#Cc3ccc([N+](=O)[O-])cc3)cc2cc1C#Cc1ccc([N+](=O)[O-])cc1

emission maximum (in ClCCl): 486 nm
Structure (SMILES): COc1ccc(C#Cc2ccc3nc4ccc(C#Cc5ccc(OC)cc5)cn4c(=O)c3c2)cc1

emission maximum (in C1CCCCC1): 333 nm
Structure (SMILES): C[Si](C)(C)c1ccc([Si](C)(C)C)c2ccccc12

emission maximum (in O): 547 nm
Structure (SMILES): CCOC(=O)CCCCCn1c2ccc(N)cc2c(=O)c2cc(N)ccc21

emission maximum (in C1CCCCC1): 390 nm
emission maximum (in CO): 400 nm
Structure (SMILES): C(=C\c1nc2ccccc2s1)/c1ccccc1

emission maximum (in C1CCCCC1): 344.23 nm
Structure (SMILES): Oc1cccc2ccccc12

emission maximum (in ClC(Cl)Cl): 663 nm
Structure (SMILES): CN1C(=CC2=C([S-])C(=CC3=[N+](C)c4ccccc4C3(C)C)C2=O)C(C)(C)c2ccccc21

emission maximum (in ClCCl): 748 nm
Structure (SMILES): CN(C)c1ccc(C2=C3C=C(c4ccc(C=C(C#N)C#N)cc4)S[C@]34c3ccccc3[C@H]2c2ccccc24)cc1

emission maximum (in C1CCCCC1): 472 nm
emission maximum (in CC#N): 510 nm
emission maximum (in CCO): 549 nm
Structure (SMILES): COc1ccc2c(c1)-c1ccccc1C2=O

emission maximum (in C1CCCCC1): 309 nm
Structure (SMILES): CCCC1(CCC)c2ccccc2-c2ccccc21

emission maximum (in ClCCl): 681 nm
Structure (SMILES): COC(=O)CCC1=CC(C#Cc2cccs2)=[N+]2C1=Cc1c(CCC(=O)OC)cc(C#Cc3cccs3)n1[B-]2(F)F

emission maximum (in ClCCl): 353 nm
Structure (SMILES): Cc1cc2c3ccccc3oc2c2[nH]c3ccccc3c12

emission maximum (in O): 820 nm
Structure (SMILES): CC1(C)C(/C=C/C=C/C=C/C=C2\N(CCCCS(=O)(=O)[O-])c3ccc4ccccc4c3C2(C)C)=[N+](CCCCS(=O)(=O)[O-])c2ccc3ccccc3c21

emission maximum (in CC#N): 533 nm
Structure (SMILES): COc1ccc(-c2nc3c([nH]2)C2=CC(=O)S[C@]2(C)[C@@]2(C)SC(=O)C=C32)cc1

emission maximum (in CC#N): 428 nm
emission maximum (in CCCCCCC): 408 nm
emission maximum (in CO): 424 nm
emission maximum (in O): 537 nm
Structure (SMILES): CC(=O)n1cc(/C=C/c2ccc([N+](=O)[O-])cc2)c2ccccc21

emission maximum (in C1CCCCC1): 451 nm
Structure (SMILES): CCCCc1cc2cccc[n+]2[b-]2c(-c3cccc4[b-]3[n+]3ccccc3cc4CCCC)cccc21

emission maximum (in O): 487 nm
Structure (SMILES): COc1cc(N(CC(=O)[O-])CC(=O)[O-])c2ncccc2c1

emission maximum (in CCO): 567 nm
emission maximum (in ClCCl): 565 nm
emission maximum (in O): 585 nm
Structure (SMILES): O=Cc1ccc(-c2cccc(-c3nc4ccccc4s3)c2O)o1

emission maximum (in CC#N): 327 nm
emission maximum (in CCCCCC): 325 nm
Structure (SMILES): C/C=C/c1cccc(OC)c1

emission maximum (in CCO): 353 nm
Structure (SMILES): c1ccc(N(c2ccccc2)c2ccccc2)cc1

emission maximum (in O): 426 nm
Structure (SMILES): Cc1cc(/N=C/c2cc(S(=O)(=O)[O][Na])ccc2O)c(/N=C/c2cc(S(=O)(=O)[O][Na])ccc2O)cc1C
